According to patent US20070015661A1, “Herbicide/safener combination” (Bayer CropScience GmbH, priority 2005, published 2007):

Key:
[1] = system: cotton, oilseed rape, sugar beet and Gramineae crops such as barley, wheat, rye, millet, corn or rice; assay: Compatibility with crop plants (greenhouse, visual scoring); type: in vivo; details: herbicide/safener combination, above all with safeners II-1, II-9, III-1, b-11, b-14, IX-A3; pre-emergence method or post-emergence method; four to five weeks after application
From the text: In further greenhouse trials, seeds of a relatively large number of crop plants and weeds were placed into sandy loam soil and covered with soil. Some of the pots were immediately treated as described in Section 1, the others were placed in a greenhouse until the plants had developed two to three true leaves and were then sprayed with various dosages of the herbicide/safener combinations according to the invention, as described in Section 2.

[2] = system: Sinapis alba, Echinochloa crus-galli, Lolium multiflorum, Chrysanthemum segetum, Setaria viridis, Abutilon theophrasti, Amaranthus retroflexus, Panicum …; assay: Post-emergence action against weeds (greenhouse pot test, visual scoring); type: in vivo, monocotyledonous and dicotyledonous weeds; details: herbicide/safener combination, above all with safeners II-1, II-9, III-1, b-11, b-14, IX-A3; post-emergence method, three-leaf stage; 500 g or less of herbicide (A) per hectare; three to four weeks
Method: Seeds or rhizome pieces of monocotyledonous and dicotyledonous weeds were placed into sandy loam soil in plastic pots, covered with soil and grown in a greenhouse under good growth conditions. Three weeks after sowing, the test plants were treated at the three-leaf stage. The compounds according to the invention, formulated as wettable powders or as emulsion concentrates, were sprayed onto the green parts of the plants at various dosages using a water application rate of 300 to 800 l/ha (converted). The test plants were stood in the greenhouse under optimum growth conditions for about three to four weeks, and the action of the preparations was then scored visually in comparison to untreated controls. Post-emergence, too, the herbicide/safener combinations according to the invention have good herbicidal activity against a broad spectrum of economically important weed grasses and broad-leaved weeds.

[3] = system: Sinapis alba, Chrysanthemum segetum, Avena sativa, Stellaria media, Echinochloa crus-galli, Lolium multiflorum, Setaria viridis, Abutilon theophrasti …; assay: Pre-emergence action against weeds (greenhouse pot test, optical scoring); type: in vivo, monocotyledonous and dicotyledonous weed plants; details: herbicide/safener combination, above all with safeners II-1, II-9, III-1, b-11, b-14, IX-A3; pre-emergence method; 500 g or less of herbicide (A) per hectare; 3 to 4 weeks
From the text: Seeds or rhizome pieces of monocotyledonous and dicotyledonous weed plants were placed in sandy loam soil in cardboard pots and covered with soil. The active compounds (A) and (B), formulated in the form of wettable powders or emulsion concentrates, were then applied to the surface of the covering soil in various dosages as aqueous suspensions or emulsions using a water application rate of 300 to 800 l/ha (converted).
After the treatment, the pots were placed in a greenhouse and kept under good growth conditions for the weeds. Optical scoring of the damage to the plants or emerged plants was carried out after emergence of the test plants after a trial period of 3 to 4 weeks, in comparison to untreated controls. As shown by the results, the tested herbicide/safener combinations have good herbicidal pre-emergence activity against a broad spectrum of weed grasses and broad-leaved weeds.

| Compound | damage to crop plants (visual scoring) [1] | herbicidal activity against harmful plants (visual scoring vs untreated controls) [2] | herbicidal activity against harmful plants (optical scoring of damage vs untreated controls) [3] |
| --- | --- | --- | --- |
| CC1(C)CC(S(=O)(=O)C(Cl)c2ccccc2)=NO1 (stereo not drawn) [I-1.1] | did not cause any damage | very good herbicidal activity | very good herbicidal activity |
| CC1(C)CC(S(=O)(=O)C(Cl)c2cc(F)ccc2F)=NO1 (stereo not drawn) [I-2.1] | did not cause any damage | very good herbicidal activity | very good herbicidal activity |
| CCC1(C)CC(S(=O)(=O)C(Cl)c2cc(F)ccc2F)=NO1 (stereo not drawn) [I-2.2] | did not cause any damage | very good herbicidal activity | very good herbicidal activity |
| CC1(C)CC(S(=O)(=O)C(Cl)c2c(F)cccc2F)=NO1 (stereo not drawn) [I-3.1] | did not cause any damage | very good herbicidal activity | very good herbicidal activity |
| CCC1(C)CC(S(=O)(=O)C(Cl)c2c(F)cccc2F)=NO1 (stereo not drawn) [I-3.2] | did not cause any damage | very good herbicidal activity | very good herbicidal activity |
| CC1(C)CC(S(=O)(=O)C(Cl)c2cc(C(F)(F)F)ccc2F)=NO1 (stereo not drawn) [I-4.1] | did not cause any damage | very good herbicidal activity | very good herbicidal activity |
| CC1(C)CC(S(=O)(=O)C(Cl)c2c(F)cccc2Cl)=NO1 (stereo not drawn) [I-5.1] | did not cause any damage | very good herbicidal activity | very good herbicidal activity |
| CC1(C)CC(S(=O)(=O)C(Cl)c2ccccc2Cl)=NO1 (stereo not drawn) [I-6.1] | did not cause any damage | very good herbicidal activity | very good herbicidal activity |
| CC1(C)CC(S(=O)(=O)C(Cl)c2ccccc2OC(F)(F)F)=NO1 (stereo not drawn) [I-10.1] | did not cause any damage | very good herbicidal activity | very good herbicidal activity |
| CCC1(C)CC(S(=O)(=O)C(Cl)c2cc(C(F)(F)F)ccc2Cl)=NO1 (stereo not drawn) [I-98.2] | did not cause any damage | very good herbicidal activity | very good herbicidal activity |
| CC1(C)CC(S(=O)(=O)C(Cl)c2c(Cl)cccc2Cl)=NO1 (stereo not drawn) [I-109.1] | did not cause any damage | very good herbicidal activity | very good herbicidal activity |
| CC1(C)CC(S(=O)(=O)C(Cl)c2c(F)cccc2C(F)(F)F)=NO1 (stereo not drawn) [I-117.1] | did not cause any damage | very good herbicidal activity | very good herbicidal activity |
| CC1(C)CC(S(=O)(=O)C(Cl)c2cc(F)cc(F)c2F)=NO1 (stereo not drawn) [I-129.1] | did not cause any damage | very good herbicidal activity | very good herbicidal activity |
| Cn1nc(C(F)(F)F)c(C(Cl)S(=O)(=O)C2=NOC(C)(C)C2)c1OC(F)F (stereo not drawn) [I-206.1] | did not cause any damage | very good herbicidal activity | very good herbicidal activity |
| Cn1nc(C(F)(F)F)c(C(Cl)S(=O)(=O)C2=NOC(C)(C)C2)c1Cl (stereo not drawn) [I-216.1] | did not cause any damage | very good herbicidal activity | very good herbicidal activity |
| CCC1(C)CC(S(=O)(=O)C(Cl)c2c(C(F)(F)F)nn(C)c2Cl)=NO1 (stereo not drawn) [I-216.2] | did not cause any damage | very good herbicidal activity | very good herbicidal activity |
| CC1(C)CC(S(=O)(=O)C(F)c2cc(F)ccc2F)=NO1 (stereo not drawn) [I-249.1] | did not cause any damage | very good herbicidal activity | very good herbicidal activity |
| CC1(C)CC(S(=O)(=O)C(F)c2c(F)cccc2F)=NO1 (stereo not drawn) [I-250.1] | did not cause any damage | very good herbicidal activity | very good herbicidal activity |
| Cn1nc(C(F)(F)F)c(C(F)S(=O)(=O)C2=NOC(C)(C)C2)c1OC(F)F (stereo not drawn) [I-260.1] | did not cause any damage | very good herbicidal activity | very good herbicidal activity |
| Cn1nc(C(F)(F)F)c(C(Br)S(=O)(=O)C2=NOC(C)(C)C2)c1OC(F)F (stereo not drawn) [I-275.1] | did not cause any damage | very good herbicidal activity | very good herbicidal activity |
| Cn1nc(C(F)(F)F)c(C(Cl)[S+]([O-])C2=NOC(C)(C)C2)c1OC(F)F (stereo not drawn) [I-289.1] | did not cause any damage | very good herbicidal activity | very good herbicidal activity |
